What all share (assay type): biochemical
One test concerns the target KDR/VEGFR2 (Homo sapiens, UniProt P35968). Kind of test: Kinase IC50, 33P labeled isotope method.
Another test concerns the target CDK1/cyclin A (Homo sapiens, UniProt P06493). Kind of test: Kinase IC50, 33P labeled isotope method.
A further test deals with CDK2/Cyclin A1 (Homo sapiens, UniProt P24941). Kind of test: Kinase IC50, 33P labeled isotope method.
A further test concerns the target CDK2/cyclin A (Homo sapiens, UniProt P24941). Description: Kinase IC50, 33P labeled isotope method.
The target in a further test is T1, FLT1/VEGFR1 (Homo sapiens, UniProt P17948).
T1 sequence (P17948 827-1158 limits assumed): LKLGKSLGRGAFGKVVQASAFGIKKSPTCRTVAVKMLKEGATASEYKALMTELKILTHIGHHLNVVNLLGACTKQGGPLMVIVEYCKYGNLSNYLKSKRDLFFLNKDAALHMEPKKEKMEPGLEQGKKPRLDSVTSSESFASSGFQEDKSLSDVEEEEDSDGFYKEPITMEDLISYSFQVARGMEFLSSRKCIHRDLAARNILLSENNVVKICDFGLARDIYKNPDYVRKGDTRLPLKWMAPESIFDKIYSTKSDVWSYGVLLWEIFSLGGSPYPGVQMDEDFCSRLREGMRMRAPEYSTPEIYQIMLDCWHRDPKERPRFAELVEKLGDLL
Description: Kinase IC50, 33P labeled isotope method.

The target of a further test is JNK2 (Homo sapiens, UniProt P45984). Kind of test: Kinase IC50, 33P labeled isotope method. The following applies: 20 μM ATP; read-out: IC50* JNK2.
Sequence of JNK2 (P45984 26-321 limits assumed): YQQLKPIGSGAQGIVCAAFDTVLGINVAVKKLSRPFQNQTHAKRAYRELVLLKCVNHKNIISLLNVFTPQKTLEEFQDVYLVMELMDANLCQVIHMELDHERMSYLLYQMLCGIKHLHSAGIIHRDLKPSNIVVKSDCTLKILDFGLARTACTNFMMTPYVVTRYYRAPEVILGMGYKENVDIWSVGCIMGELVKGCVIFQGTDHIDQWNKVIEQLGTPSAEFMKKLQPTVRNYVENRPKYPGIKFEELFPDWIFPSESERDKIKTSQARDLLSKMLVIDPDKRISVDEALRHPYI
The target of the next test is T2, CDK2/A (Homo sapiens, UniProt P24941).
T2 construct: purchased
Description: Inhibitory activity to CDK2 (FRET). The note with it: read-out: CDK2 inhibition % (1 × 10^−6 mol/L). In short, it runs like this: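 FRET-based kinase assay using CDK2/cyclin A with peptide substrate in HEPES pH 7.5 buffer (MgCl2, BRIJ-35, EDTA). The kinase reaction ran 1 h, followed by development reagent for 1 h and a stop step. Inhibition calculated relative to phospho-peptide (100%) and ATP-free (0%) phosphorylation controls.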

The target in a further test is JNK1 (Homo sapiens, UniProt P45983). Kind of test: Kinase IC50, 33P labeled isotope method. The following applies: 20 μM ATP; read-out: IC50* JNK1.
Sequence of JNK1 (P45983 26-321 limits assumed): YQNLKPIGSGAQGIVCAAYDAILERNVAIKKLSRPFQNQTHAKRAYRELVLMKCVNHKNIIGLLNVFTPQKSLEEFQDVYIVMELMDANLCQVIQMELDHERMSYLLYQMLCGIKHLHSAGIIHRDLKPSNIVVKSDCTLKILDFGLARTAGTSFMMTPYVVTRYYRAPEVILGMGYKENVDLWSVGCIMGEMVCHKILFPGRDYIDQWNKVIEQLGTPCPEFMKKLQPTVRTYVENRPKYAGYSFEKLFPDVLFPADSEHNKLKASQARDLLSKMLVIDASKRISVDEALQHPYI
Another test concerns the target CDK1/cyclin B (Homo sapiens, UniProt P06493). Kind of test: Kinase IC50, 33P labeled isotope method. The note with it: 20 μM ATP; read-out: IC50* CDK1/cyclin B.
The target of another test is FGFR3 (Homo sapiens, UniProt P22607). Description: Kinase IC50, 33P labeled isotope method. The note with it: 20 μM ATP.
Sequence of FGFR3 (P22607 472-761 limits assumed): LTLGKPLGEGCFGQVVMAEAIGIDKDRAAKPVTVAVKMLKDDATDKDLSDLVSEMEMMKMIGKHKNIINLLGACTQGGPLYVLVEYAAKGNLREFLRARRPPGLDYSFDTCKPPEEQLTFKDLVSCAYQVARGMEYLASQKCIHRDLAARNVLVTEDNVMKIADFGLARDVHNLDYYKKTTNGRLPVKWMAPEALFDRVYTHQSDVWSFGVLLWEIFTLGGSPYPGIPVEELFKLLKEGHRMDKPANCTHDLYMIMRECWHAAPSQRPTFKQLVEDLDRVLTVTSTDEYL
The next test has as its target CDK3/cyclin E (Homo sapiens, UniProt Q00526). Kind of test: Kinase IC50, 33P labeled isotope method.
The target in the next test is CDK4/cyclin D1 (Homo sapiens, UniProt P11802). Description: Kinase IC50, 33P labeled isotope method.
Sequence of CDK4/cyclin D1 (P11802 6-295 limits assumed): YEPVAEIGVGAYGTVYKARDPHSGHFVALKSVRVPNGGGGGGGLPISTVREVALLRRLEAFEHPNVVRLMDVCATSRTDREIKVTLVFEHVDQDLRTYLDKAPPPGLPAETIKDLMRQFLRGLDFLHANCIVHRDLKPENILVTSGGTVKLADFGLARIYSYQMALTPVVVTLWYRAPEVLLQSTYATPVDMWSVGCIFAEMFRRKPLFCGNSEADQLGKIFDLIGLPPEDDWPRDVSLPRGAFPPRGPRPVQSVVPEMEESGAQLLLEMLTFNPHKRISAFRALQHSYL
Sequence of CDK4/cyclin D1 (P24385 whole entry partner): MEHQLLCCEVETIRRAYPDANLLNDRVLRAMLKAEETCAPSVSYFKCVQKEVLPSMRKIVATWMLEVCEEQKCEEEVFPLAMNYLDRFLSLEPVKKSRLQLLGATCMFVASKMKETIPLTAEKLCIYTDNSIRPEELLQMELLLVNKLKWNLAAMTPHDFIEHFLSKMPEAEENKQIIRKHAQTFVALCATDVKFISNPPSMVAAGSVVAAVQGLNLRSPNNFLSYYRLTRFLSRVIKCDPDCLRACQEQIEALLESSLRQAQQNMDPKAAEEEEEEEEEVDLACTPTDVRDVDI
In the next test the target is FGFR1 (Homo sapiens, UniProt P11362). Description: Kinase IC50, 33P labeled isotope method. The following applies: 20 μM ATP; read-out: IC50* FGFR1.
The target in another test is T3, ERK7/MAPK15 (Homo sapiens, UniProt Q8TD08).
T3 sequence (Q8TD08 13-304 limits assumed): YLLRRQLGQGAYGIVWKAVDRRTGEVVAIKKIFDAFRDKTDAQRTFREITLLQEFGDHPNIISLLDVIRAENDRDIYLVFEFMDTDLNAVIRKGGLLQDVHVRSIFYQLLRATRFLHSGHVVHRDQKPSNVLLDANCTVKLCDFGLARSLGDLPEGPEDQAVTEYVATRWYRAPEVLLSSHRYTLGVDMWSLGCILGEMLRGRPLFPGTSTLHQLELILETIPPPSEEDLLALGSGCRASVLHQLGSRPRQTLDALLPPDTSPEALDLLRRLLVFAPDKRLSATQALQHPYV
Kind of test: Kinase IC50, 33P labeled isotope method.

For another test, the target named is T4, Aurora A (Homo sapiens, UniProt O14965).
T4 construct: purchased
T4 sequence (O14965 1-403): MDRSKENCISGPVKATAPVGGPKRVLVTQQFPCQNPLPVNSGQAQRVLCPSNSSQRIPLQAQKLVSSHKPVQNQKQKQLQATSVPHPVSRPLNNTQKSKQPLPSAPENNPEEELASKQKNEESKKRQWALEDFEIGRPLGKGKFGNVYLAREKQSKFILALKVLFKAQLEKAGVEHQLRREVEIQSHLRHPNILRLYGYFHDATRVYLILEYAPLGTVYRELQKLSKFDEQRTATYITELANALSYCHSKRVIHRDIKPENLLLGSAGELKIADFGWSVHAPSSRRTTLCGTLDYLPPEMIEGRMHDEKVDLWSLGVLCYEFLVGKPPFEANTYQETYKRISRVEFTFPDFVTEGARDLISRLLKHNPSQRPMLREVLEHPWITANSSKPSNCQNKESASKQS
Kind of test: Inhibitory activity to Aurora A (FRET). The following applies: read-out: Aurora A inhibition % (1 × 10^−6 mol/L). The method in brief:
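FRET kinase assay of Aurora A with peptide substrate in HEPES pH 7.5, BRIJ-35, MgCl2, EDTA; 1 h reaction, then 1 h development before stop. Ex 400 nm, emission 445 nm (coumarin) and 520 nm (fluorescein); 0% and 100% phosphorylation controls set inhibition scale.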

The target in a further test is CDK1/cyclin E (Homo sapiens, UniProt P06493). Description: Kinase IC50, 33P labeled isotope method. The note with it: 20 μM ATP; read-out: IC50* CDK1/cyclin E.
Sequence of CDK1/cyclin E (P06493 4-287 limits assumed): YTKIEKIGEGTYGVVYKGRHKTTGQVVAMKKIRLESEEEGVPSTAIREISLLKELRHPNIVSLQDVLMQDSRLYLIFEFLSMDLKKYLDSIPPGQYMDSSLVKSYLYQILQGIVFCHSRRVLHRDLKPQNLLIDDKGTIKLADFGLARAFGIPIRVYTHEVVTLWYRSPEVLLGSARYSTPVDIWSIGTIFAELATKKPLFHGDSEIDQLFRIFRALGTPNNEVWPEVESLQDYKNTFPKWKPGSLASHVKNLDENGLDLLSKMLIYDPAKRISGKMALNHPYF
Sequence of CDK1/cyclin E (P24864 whole entry partner): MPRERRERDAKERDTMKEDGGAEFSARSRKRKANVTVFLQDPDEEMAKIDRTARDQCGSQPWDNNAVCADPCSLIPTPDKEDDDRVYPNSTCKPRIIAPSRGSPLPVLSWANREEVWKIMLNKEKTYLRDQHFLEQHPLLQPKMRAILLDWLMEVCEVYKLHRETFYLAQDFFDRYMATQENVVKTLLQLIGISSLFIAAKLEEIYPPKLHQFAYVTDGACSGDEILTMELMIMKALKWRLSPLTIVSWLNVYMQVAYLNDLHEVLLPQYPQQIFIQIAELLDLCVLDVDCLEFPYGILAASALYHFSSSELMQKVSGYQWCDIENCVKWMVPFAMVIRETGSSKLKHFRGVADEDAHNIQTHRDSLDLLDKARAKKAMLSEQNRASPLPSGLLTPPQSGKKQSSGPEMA
A further test concerns the target FGFR2 (Homo sapiens, UniProt P21802). Description: Kinase IC50, 33P labeled isotope method. The following applies: 20 μM ATP; read-out: IC50* FGFR2.
In another test the target is CDK5/p35 (Homo sapiens, UniProt Q00535). Kind of test: Kinase IC50, 33P labeled isotope method. The following applies: 20 μM ATP; read-out: IC50* CDK5/p35.
Sequence of CDK5/p35 (Q00535 4-286 limits assumed): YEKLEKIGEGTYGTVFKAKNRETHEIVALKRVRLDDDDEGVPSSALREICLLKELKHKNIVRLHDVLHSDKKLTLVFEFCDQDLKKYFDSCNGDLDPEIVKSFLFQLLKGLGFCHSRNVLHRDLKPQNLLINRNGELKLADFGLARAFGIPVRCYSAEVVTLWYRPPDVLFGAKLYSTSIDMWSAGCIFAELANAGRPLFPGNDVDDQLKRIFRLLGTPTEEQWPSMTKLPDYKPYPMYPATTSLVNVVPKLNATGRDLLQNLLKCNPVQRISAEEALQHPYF
Sequence of CDK5/p35 (Q15078 whole entry partner): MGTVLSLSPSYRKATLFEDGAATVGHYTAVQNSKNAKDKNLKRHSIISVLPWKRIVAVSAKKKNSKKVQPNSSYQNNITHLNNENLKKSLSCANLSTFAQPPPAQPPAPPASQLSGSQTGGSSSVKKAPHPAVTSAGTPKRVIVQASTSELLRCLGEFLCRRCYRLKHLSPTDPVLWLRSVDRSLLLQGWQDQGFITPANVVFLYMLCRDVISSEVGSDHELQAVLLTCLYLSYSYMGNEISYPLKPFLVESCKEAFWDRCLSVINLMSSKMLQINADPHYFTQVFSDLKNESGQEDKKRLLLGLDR
For a further test, the target named is CDK7/cyclin H (Homo sapiens, UniProt P50613). Description: Kinase IC50, 33P labeled isotope method. The following applies: 20 μM ATP; read-out: IC50* CDK7/cyclin H.
Another test concerns the target JAK2 (Homo sapiens, UniProt O60674). Kind of test: Kinase IC50, 33P labeled isotope method. The following applies: 20 μM ATP; read-out: IC50* JAK2.

The results in this text go back to patent US9550792B2, “Polycyclic substituted pyrazole kinase activity inhibitors and use thereof” (priority 2013, dated 2017).

Sequence of CDK3/cyclin E (Q00526 4-286 limits assumed): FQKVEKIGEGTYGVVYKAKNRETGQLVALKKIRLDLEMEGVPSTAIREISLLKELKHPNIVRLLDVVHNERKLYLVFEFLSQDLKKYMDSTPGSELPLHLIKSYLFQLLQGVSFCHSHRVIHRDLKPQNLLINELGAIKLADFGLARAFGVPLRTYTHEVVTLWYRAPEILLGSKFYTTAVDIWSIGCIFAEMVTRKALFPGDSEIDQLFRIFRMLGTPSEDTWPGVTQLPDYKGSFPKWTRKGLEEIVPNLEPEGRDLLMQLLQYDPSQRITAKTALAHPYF
Sequence of CDK3/cyclin E (P24864 whole entry partner): as the sequence (P24864 whole entry partner) above
Sequence of CDK1/cyclin B (P06493 4-287 limits assumed): as the sequence (P06493 4-287 limits assumed) above
Sequence of CDK1/cyclin B (P14635 whole entry partner): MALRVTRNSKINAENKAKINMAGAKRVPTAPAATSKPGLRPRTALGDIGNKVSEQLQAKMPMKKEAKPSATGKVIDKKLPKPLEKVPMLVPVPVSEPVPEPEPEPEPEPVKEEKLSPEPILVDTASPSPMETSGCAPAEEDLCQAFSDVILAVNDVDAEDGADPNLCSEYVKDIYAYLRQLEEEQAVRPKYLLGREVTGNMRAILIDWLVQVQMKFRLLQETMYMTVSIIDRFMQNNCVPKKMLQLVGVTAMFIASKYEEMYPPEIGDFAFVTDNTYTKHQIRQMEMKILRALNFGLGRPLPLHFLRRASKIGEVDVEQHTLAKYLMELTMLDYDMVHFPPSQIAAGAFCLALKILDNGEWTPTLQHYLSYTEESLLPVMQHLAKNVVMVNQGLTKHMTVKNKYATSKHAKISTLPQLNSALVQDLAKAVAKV
Sequence of JAK2 (O60674 849-1124 limits assumed): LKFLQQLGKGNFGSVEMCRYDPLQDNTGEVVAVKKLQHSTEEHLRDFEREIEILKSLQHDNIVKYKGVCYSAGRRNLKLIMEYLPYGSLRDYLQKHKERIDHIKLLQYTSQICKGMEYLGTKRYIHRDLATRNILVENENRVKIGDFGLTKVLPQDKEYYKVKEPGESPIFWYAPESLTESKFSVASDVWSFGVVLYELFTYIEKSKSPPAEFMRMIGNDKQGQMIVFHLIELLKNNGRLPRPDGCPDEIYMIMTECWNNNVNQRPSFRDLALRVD
Sequence of FGFR2 (P21802 481-770 limits assumed): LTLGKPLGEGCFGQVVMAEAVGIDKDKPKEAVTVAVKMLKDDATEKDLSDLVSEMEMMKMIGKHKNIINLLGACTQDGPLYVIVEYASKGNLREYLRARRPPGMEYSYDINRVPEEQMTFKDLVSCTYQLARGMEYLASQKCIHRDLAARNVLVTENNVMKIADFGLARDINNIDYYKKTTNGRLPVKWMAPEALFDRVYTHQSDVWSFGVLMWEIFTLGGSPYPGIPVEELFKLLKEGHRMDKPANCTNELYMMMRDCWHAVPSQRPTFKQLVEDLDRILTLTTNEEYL
Sequence of KDR/VEGFR2 (P35968 834-1162 limits assumed): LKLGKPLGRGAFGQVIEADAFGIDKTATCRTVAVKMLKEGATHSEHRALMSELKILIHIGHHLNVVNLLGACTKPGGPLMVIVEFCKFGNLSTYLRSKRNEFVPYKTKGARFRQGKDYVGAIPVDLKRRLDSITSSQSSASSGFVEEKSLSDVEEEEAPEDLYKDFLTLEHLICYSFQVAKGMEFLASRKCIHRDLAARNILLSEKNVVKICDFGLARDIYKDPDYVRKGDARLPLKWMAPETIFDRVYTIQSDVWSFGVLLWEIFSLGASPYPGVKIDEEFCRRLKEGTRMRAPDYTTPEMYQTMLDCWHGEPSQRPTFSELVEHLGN

Take `CN1CCN(Cc2ccc(NC(=O)c3n[nH]cc3Nc3ncnc4sccc34)cc2)CC1` [Compound I-1, 4-(4-thieno[2,3-d]pyrimidinylamino)-N-(4-((4-methyl-1-piperazinyl)methyl)phenyl)-1H-3-pyrazole carboxamide]: the IC50 at KDR/VEGFR2 is 35 nM; against CDK1/cyclin A it was 157 nM; against CDK2/Cyclin A1, 9 nM; against CDK2/cyclin A, 15 nM; against FLT1/VEGFR1 it was 20 nM; at JNK2 it was not below 1000 nM. Besides, the IC50 on JNK1 is not below 1000 nM; on CDK1/cyclin B it was 87 nM; at FGFR3, 807 nM; against CDK3/cyclin E, 190 nM; on CDK4/cyclin D1 it was 6 nM; at FGFR1 it was 304 nM. Besides, the IC50 came to 7 nM on ERK7/MAPK15; 96 nM at CDK1/cyclin E; 233 nM on FGFR2; 15 nM on CDK5/p35; 522 nM on CDK7/cyclin H; 795 nM at JAK2. The inhibition at 1 µM on CDK2/A was 70.9%; at Aurora A it was 67.9%.
